Results as given in patent publication US4857549A, “Antitumor compounds” (priority 1988, dated 1989).
Several values for one entry are separate records, joined by “and”; a condition that tells them apart may be missing. Identical values can stand only once. Like-named read-outs stand apart in the source and are kept apart here.

What was measured:
in vivo = conditions: mouse, ip
P388 leukemia = conditions: for ILS (maximum increase in lifespan): ip P388 leukemia mice, ip days 1-5, slash-separated figures are separate experiments
[1] = test system: M5076 reticulum cell sarcoma; assay: ip M5076 reticulum cell sarcoma assay in mice; conditions: for MTD (maximally tolerated dose) / ILS max (maximum increase in lifespan): Table C, ip qD × 10; for MTD (maximally tolerated dose): B6D2F1 female mice; for ILS max (maximum increase in lifespan): ip M5076 sarcoma mice, slash = separate experiments, compound 2: seven experiments; for activity in the ip M5076 reticulum cell sarcoma assay: in words, based on Tables C and D
Protocol: Another chemosensitive tumor model is intraperitoneally (ip) implanted M5076 reticulum cell sarcoma in mice. In this system B6D2F1 female mice are inoculated with 0.5 ml of a 10 percent weight:volume (w:v) brei of M5076 prepared from pooled subcutaneous (sc) tumors excised at about 21 days from c57B1/6 donor mice. Drugs are administered ip. Daily treatment is begun 24 hours after implantation and is continued for ten days. The treatment regimen for M5076 is more prolonged than for P388 because of the slower growth rate and longer control survival time of the M5076 tumor.

[2] = Table B, B6D2F1 female mice, ip qD × 5
[3] = Table B, compound 2: 35 experiments

Compound	MTD (in vivo) [mg/kg]	MTD (maximally tolerated dose) (P388 leukemia; [2]) [mg/kg]	ILS (maximum increase in lifespan) (P388 leukemia; [3])	other results
CC(C(C)P(c1ccccc1)c1ccccc1)P(c1ccccc1)c1ccccc1 (single isomer, unassigned; (-)) [Compound 42]	48			
[Cl][Au][PH](C=C[PH]([Au][Cl])(c1ccccc1)c1ccccc1)(c1ccccc1)c1ccccc1 [Compound 8, μ-[Trans-1,2-Bis(Diphenylphosphino)Ethylene]Bis[Chlorogold(I)]]		24	33% and 36%	
CC(C[PH]([Au][Cl])(c1ccccc1)c1ccccc1)[PH]([Au][Cl])(c1ccccc1)c1ccccc1 (stereo not drawn) [Compound 9, μ-[1,2-Bis(Diphenylphosphino)Propane]Bis[Chlorogold(I)]]		6	45% and 60% and 35%	MTD (maximally tolerated dose) [1]: 5 mg/kg; ILS max (maximum increase in lifespan) [1]: 98%; activity in the ip M5076 reticulum cell sarcoma assay [1]: good activity
C[C@H](C[PH]([Au][Cl])(c1ccccc1)c1ccccc1)[PH]([Au][Cl])(c1ccccc1)c1ccccc1 [Compound 10, μ-[(R)-(+)-1,2Bis(Diphenylphosphino)Propane]Bis[Chlorogold(I)]]		6	50% and 25%	
CC(C(C)[PH]([Au][Cl])(c1ccccc1)c1ccccc1)[PH]([Au][Cl])(c1ccccc1)c1ccccc1 [Compound 11, μ-[(-) (2S,3S)-2,3-Bis(Diphenylphosphino)Butane]Bis[Chlorogold(I)]]				MTD (maximally tolerated dose) (P388 leukemia; mouse, in vivo, ip): 6 mg/kg
O=[N+]([O-])[O][Ag][PH](CC[PH]([Ag][O][N+](=O)[O-])(c1ccccc1)c1ccccc1)(c1ccccc1)c1ccccc1 [Compound 13, μ-[1,2-Bis(Diphenylphosphino)Ethane]Bis[Nitratosilver(I)]]		6	45% and 30%	
[Cl][Cu][PH](CC[PH]([Cu][Cl])(c1ccccc1)c1ccccc1)(c1ccccc1)c1ccccc1 [Compound 14, μ-[1,2-Bis(Diphenylphosphino)Ethane]Bis[Chlorocopper(I)]]		4	65% and 79%	
N#C[S][Au][PH](CC[PH]([Au][S]C#N)(c1ccccc1)c1ccccc1)(c1ccccc1)c1ccccc1 [Compound 16]		6	36% and 62% and 45%	MTD (maximally tolerated dose) [1]: 5 mg/kg; ILS max (maximum increase in lifespan) [1]: 52%; activity in the ip M5076 reticulum cell sarcoma assay [1]: good activity
CC(=O)[O][Au][PH](CC[PH]([Au][O]C(C)=O)(c1ccccc1)c1ccccc1)(c1ccccc1)c1ccccc1 [Compound 17, μ-[1,2-Bis(Diphenylphosphino)Ethane]Bis[Acetatogold(I)]]		4	73% and 64%	MTD (maximally tolerated dose) [1]: 4 mg/kg; ILS max (maximum increase in lifespan) [1]: 54% and 67%; activity in the ip M5076 reticulum cell sarcoma assay [1]: good activity
FC(F)(F)[S][Au][PH](CC[PH]([Au][S]C(F)(F)F)(c1ccccc1)c1ccccc1)(c1ccccc1)c1ccccc1 [Compound 18, μ-[1,2-Bis(diphenylphosphino)ethane]Bis[trifluoromethyl-thiogold(I)]]				ILS max (maximum increase in lifespan) [1]: 70%
CCOC(=S)[S][Au][PH](CC(O)[PH]([Au][S]C(=S)OCC)(c1ccccc1)c1ccccc1)(c1ccccc1)c1ccccc1 (stereo not drawn) [Compound 19, μ-[1,2-Bis(Diphenylphosphino)Ethanol]Bis[O-Ethyldithiocarbonatogold(I)]]		6		
CCOC(=O)C(N)C[S][Au][PH](CC[PH]([Au][S]CC(N)C(=O)OCC)(c1ccccc1)c1ccccc1)(c1ccccc1)c1ccccc1 (stereo not drawn) [Compound 20]		6	50% and 56%	
CC[PH](CC)(CC[PH]([Au][Cl])(c1ccccc1)c1ccccc1)[Au][Cl] [Compound 21, μ-[1-Diethylphosphino-2-Diphenylphosphino-Ethane]bis-[Chlorogold(I)]]		16	30%	
[Cl][Au][PH](CC[PH](Cc1ccccc1)(Cc1ccccc1)[Au][Cl])(Cc1ccccc1)Cc1ccccc1 [Compound 23, μ-[1,2-Bis(Dibenzylphosphino)Ethane]Bis[Chlorogold (I)]]		4	45% and 30%	MTD (maximally tolerated dose) [1]: 4 mg/kg; ILS max (maximum increase in lifespan) [1]: 40%
COc1ccc([PH](CC[PH]([Au][Cl])(c2ccc(OC)cc2)c2ccc(OC)cc2)([Au][Cl])c2ccc(OC)cc2)cc1 [Compound 24, μ-[1,2-Bis[Bis(4-methoxyphenyl)phosphino]ethanel]bis[chlorogold(I)]]		8		
Fc1ccc([PH](CC[PH]([Au][Cl])(c2ccc(F)cc2)c2ccc(F)cc2)([Au][Cl])c2ccc(F)cc2)cc1 [Compound 25, μ-[1,2-Bis[Bis(4-Fluorophenyl)Phosphino]Ethane]Bis-[Chlorogold (I)]]		8	80% and 75%	

Compound	MTD (in vivo) [mg/kg]	MTD (maximally tolerated dose) (P388 leukemia; [2]) [mg/kg]	ILS (maximum increase in lifespan) (P388 leukemia; [3])	other results
Fc1cccc([PH](CC[PH]([Au][Cl])(c2cccc(F)c2)c2cccc(F)c2)([Au][Cl])c2cccc(F)c2)c1 [Compound 26, μ-[1,2-Bis[Bis(3-Fluorophenyl)Phosphino]Ethane]Bis [Chlorogold (I)]]		8	60% and 55%	
Fc1c(F)c(F)c([PH](CC[PH]([Au][Cl])(c2c(F)c(F)c(F)c(F)c2F)c2c(F)c(F)c(F)c(F)c2F)([Au][Cl])c2c(F)c(F)c(F)c(F)c2F)c(F)c1F [Compound 27, μ-[1,2-Bis[bis(2,3,4,5,6-pentafluorophenyl)phosphine]ethane]-bis[chlorogold(I)]]		16	30% and 25%	
FC(F)(F)c1ccc([PH](CC[PH]([Au][Cl])(c2ccc(C(F)(F)F)cc2)c2ccc(C(F)(F)F)cc2)([Au][Cl])c2ccc(C(F)(F)F)cc2)cc1 [Compound 29]		8	37% and 44%	
CSc1ccc([PH](CC[PH]([Au][Cl])(c2ccc(SC)cc2)c2ccc(SC)cc2)([Au][Cl])c2ccc(SC)cc2)cc1 [Compound 30, μ-[1,2-Bis[Bis(4-Methylthiophenyl)Phosphino]ethane]-Bis[chlorogold(I)]]		8	37% and 65%	
[2H]c1c([2H])c([2H])c([PH](CC[PH]([Au][Cl])(c2c([2H])c([2H])c([2H])c([2H])c2[2H])c2c([2H])c([2H])c([2H])c([2H])c2[2H])([Au][Cl])c2c([2H])c([2H])c([2H])c([2H])c2[2H])c([2H])c1[2H] [Compound 31, μ-[1,2-Bis[di(phenyl-d5)phosphino]ethane]bis-[chlorogold(I)]]		6	40% and 65%	
c1ccc(P(CCCCP(c2ccccc2)c2ccccc2)c2ccccc2)cc1 [Compound 38, Bis(1,4-diphenylphosphino)butane]	28			
c1ccc(P(CCCCCP(c2ccccc2)c2ccccc2)c2ccccc2)cc1 [Compound 39, Bis (1,5-diphenylphosphino)pentane]	8			
C(=C\P(c1ccccc1)c1ccccc1)/P(c1ccccc1)c1ccccc1 [Compound 41, Trans-bis(1,2-diphenylphosphino)ethylene]	128			
C1CCC(P(CCP(C2CCCCC2)C2CCCCC2)C2CCCCC2)CC1 [Compound 44, 1,2-bis(dicyclohexylphosphino)ethane]	32			
Fc1ccc(P(CCP(c2ccc(F)cc2)c2ccc(F)cc2)c2ccc(F)cc2)cc1 [Compound 45, 1,2-ethanediyl-bis[bis(4-fluorophenyl)phosphine]]	8			
Fc1cccc(P(CCP(c2cccc(F)c2)c2cccc(F)c2)c2cccc(F)c2)c1 [Compound 46, 1,2-Ethanediyl-bis[bis(3-fluorophenyl)phosphine]]	32			
CSc1ccccc1P(CCP(c1ccccc1SC)c1ccccc1SC)c1ccccc1SC [Compound 47, 1,2-ethanediyl-bis[bis(2-methylthiophenyl)phosphine]]	64			
CSc1ccc(P(CCP(c2ccc(SC)cc2)c2ccc(SC)cc2)c2ccc(SC)cc2)cc1 [Compound 48, 1,2-Ethanediyl-Bis[Bis(4-methylthiophenyl)phosphine]]	32			
CCP(CC)CCP(CC)CC [Compound 49]	64			
CCP(CC)CCP(CC)CC [Compound 50]				MTD (maximally tolerated dose) (P388 leukemia; Table BI, B6D2F1 female mice, ip qD × 5): 128 mg/kg; ILS (maximum increase in lifespan) (P388 leukemia; Table BI, compound 33: 41 experiments): 55%
μ-[1,2-Bis[Bis(2-Methylthiophenyl)Phosphino]Ethane]Bis[Chlorogold(I)] [Compound 28]		8		
